“Also recorded” adds a separate entry of the source.
System: PI3K/Akt signaling pathway
Test: Western blot, PI3K/Akt pathway
Format: cell-based, human
Settings: for PI3K/AKT pathway (pAKT, pPRAS40, cyclin D1): Example 8, 24 hours, actives 3-5 μmol/L, inactives 30-50 μmol/L
Experimental: For Western blot analysis, cell lysates are harvested by addition of RIPA lysis buffers containing 25 mM Tris.HCl pH 7.6, 150 mM NaCl, 1% NP-40, 1% sodium deoxycholate, 0.1% SDS, 10 mM EDTA, 1 mM sodium orthovanadate, 0.1 mM sodium molybdate, 1 mM phenylmethylsulfonyl fluoride, 20 μg/mL aprotinin, and 5 μg/mL leupeptin. The cell lysates are harvested and processed as described in Madhunapantula, S. V. et al., Cancer Res, 2007, 67:3626-36. Treatment conditions: 1-1.5×10^6 melanoma cells are plated in 100 mm culture dishes, 48 h later, treated with leelamine (3-6 μmol/L) for 3 to 24 hours. Protein lysates are collected for Western blotting. The blots are probed with antibodies according to each supplier's recommendations: antibodies to total Akt, phospho-Akt (Ser473), total PRAS40, phospho-PRAS40 (Thr246), total CREB, phospho-CREB (Ser133), phospho-p70 S6 kinase (Thr389), total Erk1/2, phospho-Erk1/2 (Thr202/Tyr 204), total CDK2, phospho-CDK2 (Thr160), phospho-Rb (Ser807/811), total Stat, phospho-Stat1 (Tyr701), Phospho-Stat-2(Tyr690), Phospho-Stat3(Ser727), phospho-Stat3(Tyr705) and cleaved PARP from Cell Signaling Technology (Danvers, Mass.); total PRAS40 from Invitrogen (Carlsbad, Calif.); cyclin D1, Bcl-2, α-enolase and secondary antibodies conjugated with horseradish peroxidase from Santa Cruz Biotechnology (Santa Cruz, Calif.). Immunoblots are developed using the enhanced chemiluminescence (ECL) detection system (Thermo Fisher Scientific, Rockford, Ill.). Intensity of protein bands is quantified using ImageJ software.
For Western blot analysis, 1×10^6 melanoma cells are plated in 100 mm culture dishes, 48 hours later, treated with empty liposomes or Nanolipolee-007 (3-6 μmol/L) for 3 to 24 hours. Protein lysates collected for Western blotting. The cell lysates are harvested in an RIPA lysis buffer containing protease and phosphatases inhibitors (Pierce Biotechnology, Rockford, Ill.). Blots are probed with antibodies according to each supplier's recommendations: antibodies to total Akt, phospho-Akt (Ser473), total PRAS40, phospho-PRAS40 (Thr246), total Bad, pBad (Ser 112) total Erk1/2, phospho-Erk1/2 (Thr202/Tyr 204), total CDK2, phospho-CDK2 (Thr160), phospho-Rb (Ser807/811), total Stat, phospho-Stat3 (Tyr705), caspase-3 and cleaved PARP from Cell Signaling Technology (Danvers, Mass.); total PRAS40 from Invitrogen (Carlsbad, Calif.); cyclin D1, α-enolase and secondary antibodies conjugated with horseradish peroxidase from Santa Cruz Biotechnology (Santa Cruz, Calif.). Immunoblots are developed using the enhanced chemiluminescence (ECL) detection system (Thermo Fisher Scientific, Rockford, Ill.). Intensity of protein bands is quantified using ImageJ software.
Cell lysates are harvested by addition of RIPA lysis buffers containing 25 mM Tris*HCl pH 7.6, 150 mM NaCl, 1% NP-40, 1% sodium deoxycholate, 0.1% SDS, 10 mM EDTA, 1 mM sodium orthovanadate, 0.1 mM sodium molybdate, 1 mM phenylmethylsulfonyl fluoride, 20 μg/mL aprotinin, and 5 μg/mL leupeptin. The cell lysates are harvested and processed as described. […] Protein lysates collected for Western blotting. […] Intensity of protein bands is quantified using ImageJ software. […]

Row | Structure (SMILES) | PI3K/AKT pathway (pAKT, pPRAS40, cyclin D1) | PI3 kinase pathway signaling (3 to 6 μmol/L for 3 to 24 hours, UACC 903 and 1205 Lu)
1 | CC(C)C1=CC2=CCC3[C@](C)(CCC[C@@]3(C)C(=O)O)C2CC1 (stereo partly drawn) [Abietic acid, (1R,4aR)-1,4a-dimethyl-7-(propan-2-yl)-1,2,3,4,4a,4b,5,6,10,10a-decahydrophenanthrene-1-carboxylic acid, reference compound] | unable to affect | –
2 | CC(C)C1=CC2=CCC3[C@](C)(CN)CCC[C@]3(C)C2CC1 (stereo partly drawn) [Compound 4a, {[(1R,4aR)-1,4a-dimethyl-7-(propan-2-yl)-1,2,3,4,4a,4b,5,6,10,10a-decahydrophenanthren-1-yl]methyl}amine] | decrease pAKT, pPRAS40 and cyclin D1 | –
3 | CC(C)c1ccc2c(c1)CCC1[C@](C)(CNC(=O)C(F)(F)F)CCC[C@]21C (stereo partly drawn) [Compound 5a, N-{[(1R,4aS)-1,4a-dimethyl-7-(propan-2-yl)-1,2,3,4,4a,9,10,10a-octahydrophenanthren-1-yl]methyl}-2,2,2-trifluoroacetamide] | decrease pAKT, pPRAS40 and cyclin D1 | –
4 | CC(C)c1ccc2c(c1)CCC1[C@](C)(CN)CCC[C@]21C (stereo partly drawn) [Leelamine, [(1R,4aS)-1,4a-dimethyl-7-(propan-2-yl)-1,2,3,4,4a,9,10,10a-octahydrophenanthren-1-yl]methanamine] | highly effective in abolishing activation of AKT pathway; also recorded: decrease pAKT, pPRAS40 and cyclin D1 | decrease activity

— US9839618B2, “Compositions and methods relating to proliferative diseases” (The Penn State Research Foundation, priority 2010, dated 2017)
